This note sets out measurements from ChEMBL document CHEMBL2440004, “The influence of saponins on cell membrane cholesterol” (Bioorg Med Chem, 2013).

The test system of experiment [1] is ECV-304. In words: Effect on [3H]cholesterol liberation from cell membrane of human ECV304 cells after 1 hr by liquid scintillation counting. In kind it is functional, cell membranes.
The subject of experiment [2] is ECV-304. In words: Reduction in [3H]cholesterol uptake in human ECV304 cells after 1 hr by liquid scintillation counting. Type of experiment: functional, cell-based.
Experiment [3] has as its system ECV-304. In words: Cytotoxicity against human ECV304 cells after 72 hrs by MTT assay. In kind it is functional, cell-based. The settings on record: ECV-304, 72 h.
The subject of experiment [4] is ECV-304. In words: Reduction in [3H]cholesterol content in endosomal/lysosomal membrane of human ECV304 cells at 5 uM after 1 hr by liquid scintillation counting. Type of experiment: functional, cell membranes.
Experiment [5] relates to ECV-304. In words: Reduction in [3H]cholesterol content in cytoplasm membrane of human ECV304 cells at 5 uM after 1 hr by liquid scintillation counting. Type of experiment: functional, cell membranes.
Experiment [6] deals with ECV-304. As to the kind of experiment: Membrane toxicity against human ECV304 cells after 2 hrs by LDH release assay. In kind it is functional, cell-based. The following applies: ECV-304, 2 h.

The source made the active and inactive calls. The rule behind the calls is not given here. Bounds are passed on as bounds.

With `C[C@@H]1O[C@@H](O[C@H]2[C@H](O[C@H]3CC[C@@]4(C)[C@@H](CC[C@]5(C)[C@@H]4CC=C4[C@@H]6CC(C)(C)CC[C@]6(C(=O)O)CC[C@]45C)[C@]3(C)CO)OC[C@H](O)[C@@H]2O)[C@H](O)[C@H](O)[C@H]1O`, in the experiment with ECV-304 [1], the result was inactive. The Activity result with ECV-304 [2] was “Dose-dependent effect”.
The like results for `CC[C@H](CC[C@@H](C)[C@H]1CC[C@H]2[C@@H]3CC=C4C[C@@H](O)CC[C@]4(C)[C@H]3CC[C@]12C)C(C)C` were, in that order, “inactive” and “inactive”.
Take `C[C@@H]1O[C@@H](O[C@H]2[C@@H](O)[C@H](O[C@H]3O[C@@H](C)[C@H](O[C@H]4OC[C@@H](O)[C@H](O[C@H]5OC[C@@H](O)[C@H](O)[C@H]5O)[C@H]4O)[C@@H](O)[C@H]3O)[C@H](OC(=O)[C@]34CCC(C)(C)C[C@H]3C3=CC[C@@H]5[C@@]6(C)CC[C@H](O[C@@H]7O[C@H](C(=O)O)[C@@H](O)[C@H](O[C@@H]8OC[C@H](O)[C@@H](O)[C@@H]8O)[C@H]7O[C@@H]7O[C@H](CO)[C@H](O)[C@H](O)[C@H]7O)[C@@](C)(C=O)[C@@H]6CC[C@@]5(C)[C@]3(C)CC4)O[C@H]2C)[C@@H](O)[C@H](O)[C@H]1O`: the IC50 was 9 µM in the experiment on ECV-304 [3] and 21 µM in the experiment on ECV-304 [6]. The result with ECV-304 [4] was inactive. For the same compound, the result in the experiment on ECV-304 [5] and in the experiment with ECV-304 [1] was Active. In addition, in the experiment with ECV-304 [2], the Activity entry was “Dose-dependent effect”.
Regarding `C[C@H]1O[C@H](O[C@H]2[C@H](O[C@H]3CC[C@]4(C)[C@H]5CC=C6[C@@H]7CC(C)(C)CC[C@]7(CO)[C@H](O)C[C@@]6(C)[C@]5(C)CC[C@H]4C3(C)C)O[C@H](C(=O)O)[C@H](O[C@H]3O[C@@H](CO[C@@H]4O[C@H](CO)[C@@H](O)[C@H](O)[C@H]4O)[C@@H](O)[C@@H](O)[C@@H]3O)[C@@H]2O)[C@@H](O)[C@@H](O)[C@@H]1O`, the half-inhibitory concentration (IC50) with ECV-304 [3] worked out at 13 µM; with ECV-304 [6], 58 µM. For the same compound, the outcome in the experiment on ECV-304 [1] was Active. In addition, in the experiment with ECV-304 [2], the Activity entry was “Dose-dependent effect”.
The like results for `CC1(C)[C@@H](O[C@H]2O[C@H](C(=O)O)[C@@H](O)[C@H](O)[C@H]2O[C@@H]2O[C@H](C(=O)O)[C@@H](O)[C@H](O)[C@H]2O)CC[C@]2(C)[C@H]3C(=O)C=C4[C@@H]5C[C@@](C)(C(=O)O)CC[C@]5(C)CC[C@@]4(C)[C@]3(C)CC[C@@H]12` [GLYCYRRHIZIN] were, in that order, over 119 µM, over 238 µM, “inactive” and “inactive”.
With `C[C@@H]1O[C@@H](O[C@H]2[C@H](O[C@H]3CC[C@@]4(C)[C@@H](CC[C@]5(C)[C@@H]4CC=C4[C@@H]6CC(C)(C)CC[C@]6(C(=O)O[C@@H]6O[C@H](CO[C@@H]7O[C@H](CO)[C@@H](O[C@@H]8O[C@@H](C)[C@H](O)[C@@H](O)[C@H]8O)[C@H](O)[C@H]7O)[C@@H](O)[C@H](O)[C@H]6O)CC[C@]45C)[C@]3(C)CO)OC[C@H](O)[C@@H]2O)[C@H](O)[C@H](O)[C@H]1O` [KALOPANAXSAPONIN B], the half-maximal inhibitory concentration (IC50) in the experiment on ECV-304 [3] and with ECV-304 [6] was over 164 µM throughout. Also, the outcome in the experiment on ECV-304 [1] and with ECV-304 [2] was inactive.
`COC(=O)[C@@]1(C)CC[C@]2(C(=O)O[C@@H]3O[C@H](CO)[C@@H](O)[C@H](O)[C@H]3O)CC[C@]3(C)C(=CC[C@@H]4[C@@]5(C)CC[C@H](O[C@@H]6O[C@H](C(=O)O)[C@@H](O)[C@H](O)[C@H]6O)C(C)(C)[C@@H]5CC[C@]43C)[C@@H]2C1` came in with a half-inhibitory concentration (IC50) in the experiment on ECV-304 [3] of over 100 µM. Besides, the result with ECV-304 [1] and in the experiment with ECV-304 [2] was inactive.
Turning to `C[C@@H]1O[C@H](O[C@H]2[C@@H](OC(=O)[C@]34CCC(C)(C)C[C@H]3C3=CC[C@@H]5[C@@]6(C)CC[C@H](O[C@@H]7O[C@H](C(=O)O)[C@@H](O)[C@H](O[C@H]8OC[C@@H](O)[C@H](O)[C@H]8O)[C@H]7O[C@@H]7O[C@H](CO)[C@H](O)[C@H](O)[C@H]7O)[C@@](C)(C=O)[C@@H]6CC[C@@]5(C)[C@]3(C)C[C@H]4O)O[C@H](C)[C@H](O)[C@@H]2O)[C@H](O)[C@H](O[C@@H]2O[C@H](CO)[C@@H](O)[C@H](O)[C@H]2O)[C@H]1O[C@H]1OC[C@@H](O)[C@H](O)[C@H]1O`, in the experiment with ECV-304 [3], the IC50 is 8 µM. For the same compound, the result in the experiment with ECV-304 [1] was Active. Besides, in the experiment with ECV-304 [2], the Activity entry was “Dose-dependent effect”.
In the same order, the values of `C[C@H]1O[C@@H](O[C@H]2[C@H](O)[C@@H](O[C@H]3CC[C@]4(C)[C@H]5CC=C6[C@@H]7CC(C)(C)CC[C@]7(C(=O)O[C@@H]7O[C@H](CO[C@@H]8OC[C@](O)(CO)[C@H]8O)[C@@H](O)[C@H](O)[C@H]7O)CC[C@@]6(C)[C@]5(C)CC[C@H]4C3(C)C)O[C@@H](C(=O)O)[C@@H]2O[C@@H]2OC[C@@H](O)[C@H](O)[C@H]2O)[C@@H](O)[C@@H](O)[C@@H]1O` are over 100 µM, “inactive” and “inactive”.
